Experimental data reported in patent US4393225A, “AI-77 Compounds and pharmaceutically acceptable salts thereof” (Asahi Kasei Kogyo Kabushiki Kaisha, priority 1979, dated 1983).
Like-named read-outs stand apart in the source and are kept apart here.

System: ulcer
Assay: Anti-ulcer test (restraint and water immersion ulcer in rats, i.p.)
Type: in vivo, Male Wistar rats
Details: Rattus norvegicus, ip, read-out: % Inhibition of Ulcer
Procedure, shortened: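 Compound given intraperitoneally in saline to 24 h-fasted male Wistar rats about 150 g, followed after one hour by 6 h restraint with water immersion at 21 °C. Gastric lesions graded 0, 0.5, 1, 2 or 3 on microscopic inspection and converted to percent ulcer inhibition.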

| Compound | inhibition in vivo at 50 mg/kg (50 mg/kg i.p.) [%] | inhibition in vivo at 50 mg/kg [%] |
| --- | --- | --- |
| CCNC1CC(=O)OC1C(OC(C)=O)C(=O)NC(CC(C)C)C1Cc2cccc(O)c2C(=O)O1 (stereo not drawn) [IIIa-19-1] | 66 |  |
| CCCCCCCCCCCCCCCCCCNC1CC(=O)OC1C(OC(C)=O)C(=O)NC(CC(C)C)C1Cc2cccc(O)c2C(=O)O1 (stereo not drawn) [IIIa-19-3] | 56 |  |
| CCNC1CC(=O)OC1C(OC(=O)CC)C(=O)NC(CC(C)C)C1Cc2cccc(O)c2C(=O)O1 (stereo not drawn) [IIIa-19-9] | 66 |  |
| CCCCNC1CC(=O)OC1C(OC(=O)CCC)C(=O)NC(CC(C)C)C1Cc2cccc(O)c2C(=O)O1 (stereo not drawn) [IIIa-19-10] | 66 |  |
| CCNC1CC(=O)OC1C(OC(C)=O)C(=O)NC(CC(C)C)C1Cc2cccc(OC(C)=O)c2C(=O)O1 (stereo not drawn) [IIIa-20-1] |  | 56 |
| CCNC1CC(=O)OC1C(OC(=O)CC)C(=O)NC(CC(C)C)C1Cc2cccc(OC(=O)C(C)C)c2C(=O)O1 (stereo not drawn) [IIIa-20-2] | 56 |  |
| CC(=O)Oc1cccc2c1C(=O)OC(C(CC(C)C)NC(=O)C(OC(C)=O)C1OC(=O)CC1NCC(Cl)(Cl)Cl)C2 (stereo not drawn) [IIIa-20-10] | 56 |  |
| CCNC1CC(=O)OC1C(O)C(=O)NC(CC(C)C)C1Cc2cccc(OC(C)=O)c2C(=O)O1 (stereo not drawn) [IIIa-21-1] | 78 |  |
| CC(=O)Oc1cccc2c1C(=O)OC(C(CC(C)C)NC(=O)C(O)C1OC(=O)CC1NCC(C)C)C2 (stereo not drawn) [IIIa-21-2] | 72 |  |
| CCCCCCCCCCCCCCCCCCNC1CC(=O)OC1C(O)C(=O)NC(CC(C)C)C1Cc2cccc(OC(C)=O)c2C(=O)O1 (stereo not drawn) [IIIa-21-3] | 66 |  |
| CCNC1CC(=O)OC1C(O)C(=O)NC(CC(C)C)C1Cc2cccc(OC(=O)CC)c2C(=O)O1 (stereo not drawn) [IIIa-21-9] | 66 |  |
| CC(C)CNC1CC(=O)OC1C(O)C(=O)NC(CC(C)C)C1Cc2cccc(OCC(C)C)c2C(=O)O1 (stereo not drawn) [IIIa-22-4] | 94 |  |
| CCCCCCCCCCCCCCCCCCNC1CC(=O)OC1C(O)C(=O)NC(CC(C)C)C1Cc2cccc(OCCCCC)c2C(=O)O1 (stereo not drawn) [IIIa-22-6] | 72 |  |
| COc1cccc2c1C(=O)OC(C(CC(C)C)NC(=O)C(O)C1OC(=O)CC1NCC(Cl)(Cl)Cl)C2 (stereo not drawn) [IIIa-22-7] | 78 |  |
| CCCCCCCCCCCCOc1cccc2c1C(=O)OC(C(CC(C)C)NC(=O)C(O)C1OC(=O)CC1NCC)C2 (stereo not drawn) [IIIa-22-9] | 83 |  |
| CCNC1CC(=O)OC1C(O)C(=O)NC(CC(C)C)C1Cc2cccc(OCC(C)C)c2C(=O)O1 (stereo not drawn) [IIIa-22-10] | 83 |  |
| CCCCCCCCOc1cccc2c1C(=O)OC(C(CC(C)C)NC(=O)C(O)C1OC(=O)CC1NCC)C2 (stereo not drawn) [IIIa-22-11] | 83 |  |
| CCCCCCCCOc1cccc2c1C(=O)OC(C(CC(C)C)NC(=O)C(O)C1OC(=O)CC1NCCCCCCC)C2 (stereo not drawn) [IIIa-22-12] | 72 |  |
| CCOc1cccc2c1C(=O)OC(C(CC(C)C)NC(=O)C(O)C1OC(=O)CC1NCC(Cl)(Cl)Cl)C2 (stereo not drawn) [IIIa-22-13] | 78 |  |
| CCOc1cccc2c1C(=O)OC(C(CC(C)C)NC(=O)C(O)C1OC(=O)CC1NCCCCBr)C2 (stereo not drawn) [IIIa-22-25] | 89 |  |
| CCOc1cccc2c1C(=O)OC(C(CC(C)C)NC(=O)C(O)C1OC(=O)CC1NCCSC)C2 (stereo not drawn) [IIIa-22-39] | 94 |  |
| CCCCCSCCNC1CC(=O)OC1C(O)C(=O)NC(CC(C)C)C1Cc2cccc(OCC)c2C(=O)O1 (stereo not drawn) [IIIa-22-40] | 94 |  |
| C#CCNC1CC(=O)OC1C(O)C(=O)NC(CC(C)C)C1Cc2cccc(OCC)c2C(=O)O1 (stereo not drawn) [IIIa-22-47] | 94 |  |
| CCOc1cccc2c1C(=O)OC(C(CC(C)C)NC(=O)C(O)C1OC(=O)CC1NCCCCCO)C2 (stereo not drawn) [IIIa-22-53] | 78 |  |
| CCOc1cccc2c1C(=O)OC(C(CC(C)C)NC(=O)C(O)C1OC(=O)CC1NCC=C(C)C)C2 (stereo not drawn) [IIIa-22-72] | 94 |  |
| CCCCNC1CC(=O)OC1C(O)C(=O)NC(CC(C)C)C1Cc2cccc(OCCCC)c2C(=O)O1 (stereo not drawn) [IIIa-22-76] | 94 |  |
| CCCCNC1CC(=O)OC1C(O)C(=O)NC(CC(C)C)C1Cc2cccc(OCCC(C)C)c2C(=O)O1 (stereo not drawn) [IIIa-22-77] | 94 |  |
